Data as given in patent publication US4218443A, “Polyether ionophores as antiobesity and hypotriglyceridemic agents” (Hoffmann-La Roche Inc., priority 1979, dated 1980).

What was measured:
[1] = test system: rats in the five day two hour meal model; assay: Five day two hour meal model; type: in vivo, rat; conditions: sodium salt, mean ± SE
Description: A five day two hour meal model was developed to evaluate the effects of lipase inhibitors in vivo. [^14 C]-triolein and [^3 H]cholesterol were included in the 10% corn oil meal on days one and five. Test compound was administered as a dietary admix. Compound was first mixed into the fat component of the diet before the dry components were added. Food consumption and body weight gain were determined. Feces were collected from day two to day four. Rats were killed on day five and the small intestine and contents were removed for analysis.

[2] = test system: intestinal absorption of triglycerides (corn oil); assay: In vivo absorption of triglycerides (corn oil absorption); conditions: Experiment 2, sodium
pancreatic lipase = target: T1, pancreatic lipase (Rattus norvegicus, UniProt P27657); assay: In vitro pancreatic lipase screen ([14C]-triolein assay); type: biochemical; conditions: read-out: Pancreatic Lipase Activity I50
T1 construct: stimulated to release pancreatic proteins by addition of 10^-5 M carbachol; from tissue; host or cells: pancreatic lobules of fasted Charles River female rats; released pancreatic juice, centrifuged
T1 sequence (P27657 17-465): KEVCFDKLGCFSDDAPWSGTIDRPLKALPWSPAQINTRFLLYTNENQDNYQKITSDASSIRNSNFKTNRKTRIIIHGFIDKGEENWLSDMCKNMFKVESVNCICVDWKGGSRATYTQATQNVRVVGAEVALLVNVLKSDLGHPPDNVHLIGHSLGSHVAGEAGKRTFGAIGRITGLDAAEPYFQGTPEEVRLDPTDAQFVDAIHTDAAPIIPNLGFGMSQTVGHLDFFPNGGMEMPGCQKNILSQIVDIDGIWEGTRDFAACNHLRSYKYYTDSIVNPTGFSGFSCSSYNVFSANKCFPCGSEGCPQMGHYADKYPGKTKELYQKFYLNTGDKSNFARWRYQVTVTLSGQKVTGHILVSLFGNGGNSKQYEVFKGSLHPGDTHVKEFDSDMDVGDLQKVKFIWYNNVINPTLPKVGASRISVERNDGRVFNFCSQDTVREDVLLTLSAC
Description: The method for assaying pacreatic lipase in vitro using [^14 C]-triolein was based on the method of Garfinkel and Schotz for lipoprotein lipase, [A. S. Garfinkel and M. C. Schotz (1972). […] Glycerol tri[1-^14 C]oleate (32 mM) was emulsified in 0.2 M Tris-HCl pH 8 containing 0.15 M NaCl, bovine serum albumin (15 mg/ml) and sodium taurocholate (1.4 mM) by sonication for three, one min intervals at 80 watts. Final assay volume was 1.0 ml. The reaction was initiated by the addition of enzyme and was allowed to proceed for 10 min. The reaction was linear for up to 20 min. The liberated free fatty acids were extracted into 0.1 M KOH and quantitated in a liquid scintillation counter using 2,5-bis-2-(5-tertbutylbenzoxazolyl)-tniophene (BBOT) scintillation fluid (Yorktown Research, South Hackensack, N.J.).
Ionophores were added to the above assay as solutions in either 90% ethanol or water, pH 8; 90% ethanol had no effect on the enzyme activity assayed by either method.

[3] = target: rat epididyml lipoprotein lipase (Rattus norvegicus, UniProt Q06000); conditions: read-out: I50 lipoprotein lipase; rat epididyml lipoprotein lipase in vitro
Sequence of rat epididyml lipoprotein lipase (Q06000 28-474): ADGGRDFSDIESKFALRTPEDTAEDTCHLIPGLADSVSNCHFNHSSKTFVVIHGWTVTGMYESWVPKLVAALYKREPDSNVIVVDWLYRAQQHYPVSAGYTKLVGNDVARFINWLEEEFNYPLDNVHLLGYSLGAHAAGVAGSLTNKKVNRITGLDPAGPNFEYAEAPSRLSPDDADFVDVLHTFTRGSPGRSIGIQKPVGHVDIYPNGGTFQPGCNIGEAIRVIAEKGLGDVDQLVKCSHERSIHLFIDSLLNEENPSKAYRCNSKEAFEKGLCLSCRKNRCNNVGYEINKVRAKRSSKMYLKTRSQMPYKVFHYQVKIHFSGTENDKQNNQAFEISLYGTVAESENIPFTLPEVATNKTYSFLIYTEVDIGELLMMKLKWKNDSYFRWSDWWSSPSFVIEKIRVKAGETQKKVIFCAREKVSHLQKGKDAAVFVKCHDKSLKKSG
Description: Acetone powders of Zucker rat epididyml adipose tissue were the source of lipoprotein lipase and were prepared by the method of Garfinkel and Schotz, [A. S. Garfinkel and M. C. […] The adipose tissue was removed quickly and immediately homogenized in acetone (15 ml per gram of adipose tissue) in a Waring Blender at high speed for one minute, then filtered quickly through a coarse fritted glass funnel. The extract was washed twice with acetone (3 ml per gram of adipose tissue), then washed two more times with anhydrous ethyl ether (3 ml per gram adipose tissue). The powder was dried under vacuum for one hour, weighed and stored desiccated at -70° C. Approximately 0.013 g acetone powder was obtained per gram of epididyml adipose tissue. The lipoprotein lipase was extracted from the acetone powder into 0.05 M NH4 OH-NH4 Cl buffer, pH 8.6. The extracts were prepared by homogenizing the acetone powder in buffer in a TenBroeck glass tissue grinder in ice. The homogenate was centrifuged at 2,000×g for 20 min to remove insoluble material.
Ionophores were added to the above assays as solutions in either water or DMSO.

Which “3H-Cholesterol in Feces” value ([1]; 120 mg/kg dietary admix) does the source give for CC[C@@H](C(=O)[C@@H](C)[C@@H](O)[C@H](C)CCc1c([N+](=O)[O-])cc(C)c(O)c1[N+](=O)[O-])[C@H]1O[C@](CC)([C@H]2CC[C@](O)(CC)[C@H](C)O2)C[C@@H]1C [Dinitrodescarboxylasalocid] here?
The value was 28.6 ± 3.9 % of ingested.

And the “14C in Feces” value ([1]; 120 mg/kg dietary admix)?
The value was 2.4 ± 0.7 % of ingested.

What about the “Body weight gain (BWG)” value ([1]; 120 mg/kg dietary admix) of the same molecule?
Its value is -1 ± 3 g.

What about the “Fat Absorption” value ([1]; 120 mg/kg dietary admix) of the same molecule?
The value was 95.6 ± 0.5%.

And the “Intestinal Cholsterol Esters” value ([1]; 120 mg/kg)?
Its value is 7.7 ± 1.2 % of 14C-lipid.

What about the “Intestinal Contents 3H-cholesterol” value ([1]; 120 mg/kg) of the same molecule?
Its value is 1.7 ± 0.2 % ingested.

What about the “Intestinal Contents 14C-lipid” value ([1]; 120 mg/kg) of the same molecule?
Its value is 0.75 ± 0.10 % ingested.

And the “Intestinal Free Fatty Acids” value ([1]; 120 mg/kg)?
The value was 61.9 ± 1.3 % of 14C-lipid.

What about the “Intestinal Mono- and Diglyceride” value ([1]; 120 mg/kg) of the same molecule?
The value was 15.3 ± 1.3 % of 14C-lipid.

What about the “Intestinal Triglyceride” value ([1]; 120 mg/kg) of the same molecule?
Its value is 9.1 ± 0.8 % of 14C-lipid.

What about the “3H-Cholesterol in Feces” value ([1]; 240 mg/kg dietary admix) of the same molecule?
Its value is 34.1 ± 2.6 % of ingested.

What about the “14C in Feces” value ([1]; 240 mg/kg dietary admix) of the same molecule?
Its value is 4.4 ± 0.8 % of ingested.

What about the “Body weight gain (BWG)” value ([1]; 240 mg/kg dietary admix) of the same molecule?
Its value is -3 ± 2 g.

And the “Fat Absorption” value ([1]; 240 mg/kg dietary admix)?
Its value is 92.8 ± 0.7%.

What about the “Food Consumption” value ([1]; 240 mg/kg dietary admix) of the same molecule?
The value was 7.2 ± 0.5 g/day.

What about the “Intestinal Cholsterol Esters” value ([1]; 240 mg/kg) of the same molecule?
Its value is 7.1 ± 0.8 % of 14C-lipid.

And the “Intestinal Contents 3H-cholesterol” value ([1]; 240 mg/kg)?
The value was 1.2 ± 0.2 % ingested.

What about the “Intestinal Contents 14C-lipid” value ([1]; 240 mg/kg) of the same molecule?
The value was 0.66 ± 0.13 % ingested.

And the “Intestinal Free Fatty Acids” value ([1]; 240 mg/kg)?
Its value is 59.6 ± 2.6 % of 14C-lipid.

And the “Intestinal Mono- and Diglyceride” value ([1]; 240 mg/kg)?
The value was 15.9 ± 0.9 % of 14C-lipid.

What about the “Intestinal Triglyceride” value ([1]; 240 mg/kg) of the same molecule?
Its value is 10.3 ± 0.7 % of 14C-lipid.

And the “Area under curve (corn oil absorption)” value ([2]; 56 mg/kg p.o.)?
Its value is 1213.

And the “Area under curve, % of control” value ([2]; 56 mg/kg p.o.)?
The value was 86 % of control.

What about the “Area under curve (corn oil absorption)” value ([2]; 120 mg/kg p.o.) of the same molecule?
The value was 1072.

What about the “Area under curve, % of control” value ([2]; 120 mg/kg p.o.) of the same molecule?
Its value is 76 % of control.

And the “Area under curve (corn oil absorption)” value ([2]; 240 mg/kg p.o.)?
The value was 564.

What about the “Area under curve, % of control” value ([2]; 240 mg/kg p.o.) of the same molecule?
The value was 40 % of control.

And the IC50 (pancreatic lipase)?
The IC50 was 400 µM.

What about the IC50 [3] of the same molecule?
The IC50 was 270 µM.
